# Assay results from patent US9624224B2, “Inhibitors of Bruton's tyrosine kinase” (Pharmacyclics LLC, priority 2013, dated 2017).
# How the values were obtained:
# Format in all cases: biochemical
# BTK = target: T1, BTK (Homo sapiens, UniProt Q06187); experiment: Btk in vitro inhibitory activity (TR-FRET, mobility shift or radiometric filter binding kinase assay); conditions: determined using one of the methods outlined in Example 47a, 47b, and 47c
# T1 construct: purified from insect cells as a full-length construct containing a N-terminal 6×-His tag; His6 (N); made in house; host or cells: insect cells (baculovirus, Sf21)
# T1 sequence (Q06187 whole entry): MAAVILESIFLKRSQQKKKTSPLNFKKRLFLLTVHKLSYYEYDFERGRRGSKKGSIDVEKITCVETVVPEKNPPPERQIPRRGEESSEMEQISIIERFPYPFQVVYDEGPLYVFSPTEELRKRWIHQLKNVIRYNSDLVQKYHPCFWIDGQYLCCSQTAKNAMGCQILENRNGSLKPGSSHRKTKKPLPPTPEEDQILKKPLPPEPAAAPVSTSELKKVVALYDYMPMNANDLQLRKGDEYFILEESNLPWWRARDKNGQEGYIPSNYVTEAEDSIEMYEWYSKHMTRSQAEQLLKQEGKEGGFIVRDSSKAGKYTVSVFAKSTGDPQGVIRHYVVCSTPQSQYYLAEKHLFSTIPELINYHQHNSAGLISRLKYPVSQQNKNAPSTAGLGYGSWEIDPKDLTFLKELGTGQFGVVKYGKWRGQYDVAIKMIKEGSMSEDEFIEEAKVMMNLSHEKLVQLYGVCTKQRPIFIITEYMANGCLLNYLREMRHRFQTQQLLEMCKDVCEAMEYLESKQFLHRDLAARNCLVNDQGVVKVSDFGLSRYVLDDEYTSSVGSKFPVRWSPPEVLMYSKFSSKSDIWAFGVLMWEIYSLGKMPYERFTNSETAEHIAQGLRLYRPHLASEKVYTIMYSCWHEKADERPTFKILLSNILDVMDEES
# Method: (§1) Btk kinase activity is determined using a time-resolved fluorescence resonance energy transfer (TR-FRET) methodology. Measurements are performed in a reaction volume of 50 μL using 96-well assay plates. […] The reaction is quenched by the addition of 1.2 equivalents of EDTA (relative to divalent cation) in 25 μL of 1× Lance buffer (Perkin-Elmer). Streptavidin-APC (Perkin-Elmer) and Eu-labeled p-Tyr100 antibody (Perkin-Elmer) in 1× Lance buffer are added in a 25 μL volume to give final concentrations of 100 nM and 2.5 nM, respectively, and the mixture is allowed to incubate for one hour. The TR-FRET signal is measured on a multimode plate reader with an excitation wavelength (λEx) of 330 nm and detection wavelengths (λEm) of 615 and 665 nm. Activity is determined by the ratio of the fluorescence at 665 nm to that at 615 nm. For each compound, enzyme activity is measured at various concentrations of compound. Negative control reactions are performed in the absence of inhibitor in replicates of six, and two no-enzyme controls are used to determine baseline fluorescence levels. Inhibition constants, Ki(app), ware obtained using the program BatchKi (Kuzmic et al. (2000), Anal. Biochem. 286:45-50). IC50s are obtained according to the equation: IC50={Ki(app)/(1+[ATP]/Km^ATP)}+[E]total/2;
# (§2) For all kinases, [ATP]=Km^ATP, [Btk]total=0.5 nM and [Lck]total=6 nM.
# Kinase activity is measured in vitro using electrophoretic mobility shift assay. The kinase reactions are assembled in a total volume of 25 μL in 384 well plates. […] The reaction is incubated for one hour and is quenched by the addition of 45 μL of termination buffer (100 mM HEPES, pH7.5, 0.01% Triton X-100, 30 mM EDTA). The terminated reactions are analyzed using 12 channel LabChip® 3000 microfluidic detection instrument (Caliper Life Sciences). The enzymatic phosphorylation of the peptide results in a change in net charge, enabling electrophoretic separation of product from substrate peptide. As substrate and product peptides are separated, two peaks of fluorescence are observed. Change in the relative fluorescence intensity of the substrate and product peaks is the parameter measured, reflecting enzyme activity. In the presence of an inhibitor, the ratio between product and substrate is altered: the signal of the product decreases, while the signal of the substrate increases.
# Activity in each sample is determined as the product to sum ratio (PSR): P/(S+P), where P is the peak height of the product peptide and S is the peak height of the substrate peptide. For each compound, enzyme activity is measured at various concentrations (12 concentrations of compound spaced by 3× dilution intervals). Negative control samples (0%-inhibition in the absence of inhibitor) and positive control samples (100%-inhibition, in the presence of 20 mM EDTA) are assembled in replicates of four and are used to calculate %-inhibition values for each inhibitor at each concentration. Percent inhibition (Pinh) is determined using following equation: Pinh=(PSR0%−PSRinh)/(PSR0%−PSR100%)*100,
# where PSRmh is the product sum ratio in the presence of inhibitor, PSR0% is the average product sum ration in the absence of inhibitor and PSR100% is the average product sum ratio in 100%-inhibition control samples;
# The IC50 values of inhibitors are determined by 4 parameter sigmoidal dose-response model fitting of the inhibition curves (Pinh versus inhibitor concentration) using XLfit 4 software.
# Human Btk kinase (Genbank accession # NP_000052) was purified from insect cells as a full-length construct containing a N-terminal 6×-His tag. Btk kinase activity was determined using a radiometric filter binding assay. Measurements are performed in a low μL reaction volume 384-well assay plates. […]
# EGFR = EGFR (Homo sapiens, UniProt P00533); experiment: EGFR kinase inhibition (in vitro kinase assay)
# Chain of EGFR (P00533 25-1210, species assumed): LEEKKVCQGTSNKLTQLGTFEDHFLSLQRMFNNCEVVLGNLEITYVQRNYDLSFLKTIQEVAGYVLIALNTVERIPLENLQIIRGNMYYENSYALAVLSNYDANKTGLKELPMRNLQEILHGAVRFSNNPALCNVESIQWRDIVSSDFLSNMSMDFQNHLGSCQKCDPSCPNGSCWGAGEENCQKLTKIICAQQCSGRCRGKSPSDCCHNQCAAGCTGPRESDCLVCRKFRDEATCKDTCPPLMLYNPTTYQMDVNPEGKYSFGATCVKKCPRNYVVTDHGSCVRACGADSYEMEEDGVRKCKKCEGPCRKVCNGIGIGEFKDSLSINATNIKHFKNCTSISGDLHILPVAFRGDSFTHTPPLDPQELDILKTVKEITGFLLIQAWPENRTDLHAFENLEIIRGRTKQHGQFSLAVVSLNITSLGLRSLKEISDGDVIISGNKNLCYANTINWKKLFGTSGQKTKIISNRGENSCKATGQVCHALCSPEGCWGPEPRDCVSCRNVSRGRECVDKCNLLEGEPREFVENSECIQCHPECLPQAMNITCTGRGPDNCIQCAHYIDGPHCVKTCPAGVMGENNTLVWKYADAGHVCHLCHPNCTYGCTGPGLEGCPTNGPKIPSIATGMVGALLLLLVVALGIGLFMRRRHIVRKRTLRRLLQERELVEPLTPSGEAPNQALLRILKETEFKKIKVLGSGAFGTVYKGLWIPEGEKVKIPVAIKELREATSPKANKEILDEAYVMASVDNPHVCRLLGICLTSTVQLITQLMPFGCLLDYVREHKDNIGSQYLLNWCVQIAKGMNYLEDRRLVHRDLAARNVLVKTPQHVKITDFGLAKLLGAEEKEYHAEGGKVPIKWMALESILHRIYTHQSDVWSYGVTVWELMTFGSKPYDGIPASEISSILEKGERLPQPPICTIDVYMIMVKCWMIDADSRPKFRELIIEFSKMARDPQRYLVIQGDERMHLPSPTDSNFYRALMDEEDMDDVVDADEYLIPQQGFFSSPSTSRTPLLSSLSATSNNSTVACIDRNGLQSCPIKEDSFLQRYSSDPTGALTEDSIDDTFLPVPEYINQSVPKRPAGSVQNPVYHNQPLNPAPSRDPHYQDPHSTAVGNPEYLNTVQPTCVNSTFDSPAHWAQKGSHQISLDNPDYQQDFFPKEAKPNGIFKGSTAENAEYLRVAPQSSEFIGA
# Lck = Lck (Homo sapiens, UniProt P06239); experiment: Lck kinase inhibition (in vitro kinase assay)
# Chain of Lck (P06239 whole entry, species assumed): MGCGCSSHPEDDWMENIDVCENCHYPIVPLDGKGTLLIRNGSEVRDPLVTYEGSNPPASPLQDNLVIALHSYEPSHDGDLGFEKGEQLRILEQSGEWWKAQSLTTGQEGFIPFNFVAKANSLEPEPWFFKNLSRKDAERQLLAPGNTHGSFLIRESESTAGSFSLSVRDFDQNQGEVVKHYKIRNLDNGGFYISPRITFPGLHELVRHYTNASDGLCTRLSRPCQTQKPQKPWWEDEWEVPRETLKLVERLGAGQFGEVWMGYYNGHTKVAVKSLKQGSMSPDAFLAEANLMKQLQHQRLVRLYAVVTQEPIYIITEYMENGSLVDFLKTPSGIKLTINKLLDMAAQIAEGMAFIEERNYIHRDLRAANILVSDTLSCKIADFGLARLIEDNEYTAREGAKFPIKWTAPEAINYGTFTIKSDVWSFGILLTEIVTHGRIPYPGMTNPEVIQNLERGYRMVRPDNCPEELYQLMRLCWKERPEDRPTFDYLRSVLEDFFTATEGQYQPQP
# Method: as §1, §2
# Jak3 = target: T2, Jak3 (Homo sapiens, UniProt P52333); experiment: Jak3 kinase inhibition (in vitro kinase assay)
# T2 sequence (P52333 1-1124): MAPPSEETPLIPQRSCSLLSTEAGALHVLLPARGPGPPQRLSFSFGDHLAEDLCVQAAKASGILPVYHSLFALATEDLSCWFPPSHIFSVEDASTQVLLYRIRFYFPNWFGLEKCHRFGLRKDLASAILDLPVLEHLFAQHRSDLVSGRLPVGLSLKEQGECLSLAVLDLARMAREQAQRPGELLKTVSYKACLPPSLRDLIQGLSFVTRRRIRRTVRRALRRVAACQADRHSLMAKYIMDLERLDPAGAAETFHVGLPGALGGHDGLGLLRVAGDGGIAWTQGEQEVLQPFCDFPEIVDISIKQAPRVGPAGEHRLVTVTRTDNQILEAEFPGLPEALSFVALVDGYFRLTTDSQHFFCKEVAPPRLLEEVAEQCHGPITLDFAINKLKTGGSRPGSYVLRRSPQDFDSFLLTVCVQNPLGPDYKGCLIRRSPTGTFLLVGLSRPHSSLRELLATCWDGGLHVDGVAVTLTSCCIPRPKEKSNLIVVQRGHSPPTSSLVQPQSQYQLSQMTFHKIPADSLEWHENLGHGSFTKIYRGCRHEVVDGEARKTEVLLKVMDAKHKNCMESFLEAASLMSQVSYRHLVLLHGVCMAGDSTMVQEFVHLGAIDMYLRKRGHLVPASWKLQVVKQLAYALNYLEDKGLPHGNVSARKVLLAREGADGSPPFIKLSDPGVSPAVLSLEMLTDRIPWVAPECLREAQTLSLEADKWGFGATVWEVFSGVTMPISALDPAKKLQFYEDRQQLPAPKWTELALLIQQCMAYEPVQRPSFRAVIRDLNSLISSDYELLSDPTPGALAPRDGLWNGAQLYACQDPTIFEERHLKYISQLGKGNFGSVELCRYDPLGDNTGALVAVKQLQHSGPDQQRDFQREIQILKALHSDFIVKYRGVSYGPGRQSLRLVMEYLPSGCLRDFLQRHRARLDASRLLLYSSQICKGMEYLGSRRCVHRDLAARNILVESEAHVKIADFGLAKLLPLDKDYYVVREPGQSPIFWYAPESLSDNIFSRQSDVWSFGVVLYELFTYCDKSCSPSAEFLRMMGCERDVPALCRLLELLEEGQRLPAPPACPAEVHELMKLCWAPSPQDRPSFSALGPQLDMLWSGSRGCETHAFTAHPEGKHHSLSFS
IC50 (BTK) [nM],IC50 (EGFR) [nM],IC50 (Lck) [nM],IC50 (Jak3) [nM],SMILES
< 100,< 1,< 1,< 1,"CN(C/C=C/C(=O)N1CC[C@@H](n2nc(-c3ccc(C(=O)Nc4ncc(C5CC5)s4)cc3)c3c(N)ncnc32)C1)C1CC1 [Example 7, (R,E)-4-(4-amino-1-(1-(4-(cyclopropyl(methyl)amino)but-2-enoyl)pyrrolidin-3-yl)-1H-pyrazolo[3,4-d]pyrimidin-3-yl)-N-(5-cyclopropylthiazol-2-yl)benzamide]"
< 100,< 100,< 100,< 1,"CN(C/C=C/C(=O)N1CC[C@@H](n2nc(-c3ccc(C(=O)Nc4ncc(C#N)s4)cc3)c3c(N)ncnc32)C1)C1CC1 [Example 12, (R,E)-4-(4-amino-1-(1-(4-(cyclopropyl(methyl)amino)but-2-enoyl)pyrrolidin-3-yl)-1H-pyrazolo[3,4-d]pyrimidin-3-yl)-N-(5-cyanothiazol-2-yl)benzamide]"
< 100,< 1,< 100,< 100,"CN(C/C=C/C(=O)N1CC[C@@H](n2nc(-c3ccc(C(=O)Nc4nccs4)cc3)c3c(N)ncnc32)C1)C1CC1 [Example 13, (R,E)-4-(4-amino-1-(1-(4-(cyclopropyl(methyl)amino)but-2-enoyl)pyrrolidin-3-yl)-1H-pyrazolo[3,4-d]pyrimidin-3-yl)-N-(thiazol-2-yl)benzamide]"
< 1,100 to 1000,100 to 1000,> 10000,"Cc1ccnc(NC(=O)c2ccc(-c3nn([C@@H]4CCN(C(=O)/C=C/CNC5CC5)C4)c4ncnc(N)c34)cc2)c1 [Example 23, (R,E)-4-(4-amino-1-(1-(4-(cyclopropylamino)but-2-enoyl)pyrrolidin-3-yl)-1H-pyrazolo[3,4-d]pyrimidin-3-yl)-N-(4-methylpyridin-2-yl)benzamide]"
< 1,1000 to 10000,> 10000,> 10000,"Cc1ccnc(NC(=O)c2ccc(-c3nn([C@@H]4CCN(C(=O)/C=C/CN(C)C)C4)c4ncnc(N)c34)cc2)c1 [Example 25, (R,E)-4-(4-amino-1-(1-(4-(dimethylamino)but-2-enoyl)pyrrolidin-3-yl)-1H-pyrazolo[3,4-d]pyrimidin-3-yl)-N-(4-methylpyridin-2-yl)benzamide]"
< 1,100 to 1000,> 10000,> 10000,"CN(C)C/C=C/C(=O)N1CC[C@@H](n2nc(-c3ccc(C(=O)Nc4cc(C(F)(F)F)ccn4)cc3)c3c(N)ncnc32)C1 [Example 26, (R,E)-4-(4-amino-1-(1-(4-(dimethylamino)but-2-enoyl)pyrrolidin-3-yl)-1H-pyrazolo[3,4-d]pyrimidin-3-yl)-N-(4-(trifluoromethyl)pyridin-2-yl)benzamide]"

# Continued, compound first:
SMILES,IC50 (BTK) [nM],IC50 (EGFR) [nM],IC50 (Lck) [nM],IC50 (Jak3) [nM]
"CC#CC(=O)N[C@H]1CC[C@H](n2nc(-c3ccc(C(=O)Nc4cc(C(F)(F)F)ccn4)cc3)c3c(N)ncnc32)CC1 [Example 19, 4-(4-amino-1-((1,4-trans)-4-but-2-ynamidocyclohexyl)-1H-pyrazolo[3,4-d]pyrimidin-3-yl)-N-(4-(trifluoromethyl)pyridin-2-yl)benzamide]",< 1,100 to 1000,< 100,> 10000
"CN(C/C=C/C(=O)N[C@H]1CC[C@H](n2nc(-c3ccc(C(=O)Nc4cc(C(F)(F)F)ccn4)cc3)c3c(N)ncnc32)CC1)C1CC1 [Example 20, 4-(4-amino-1-((1,4-trans)-4-((E)-4-(cyclopropyl(methyl)amino)but-2-enamido)cyclohexyl)-1H-pyrazolo[3,4-d]pyrimidin-3-yl)-N-(4-(trifluoromethyl)pyridin-2-yl)benzamide]",< 1,100 to 1000,< 100,> 10000
"CNC/C=C/C(=O)N1CC[C@@H](n2nc(-c3ccc(C(=O)Nc4cc(C(F)(F)F)ccn4)cc3)c3c(N)ncnc32)C1 [Example 21, (R,E)-4-(4-amino-1-(1-(4-(methylamino)but-2-enoyl)pyrrolidin-3-yl)-1H-pyrazolo[3,4-d]pyrimidin-3-yl)-N-(4-(trifluoromethyl)pyridin-2-yl)benzamide]",< 1,< 100,< 100,> 10000
"CNC/C=C/C(=O)N1CC[C@@H](n2nc(-c3ccc(C(=O)Nc4cc(C)ccn4)cc3)c3c(N)ncnc32)C1 [Example 22, (R,E)-4-(4-amino-1-(1-(4-(methylamino)but-2-enoyl)pyrrolidin-3-yl)-1H-pyrazolo[3,4-d]pyrimidin-3-yl)-N-(4-methylpyridin-2-yl)benzamide]",< 1,100 to 1000,100 to 1000,> 10000
"Nc1ncnc2c1c(-c1ccc(C(=O)Nc3cc(C(F)(F)F)ccn3)cc1)nn2[C@@H]1CCN(C(=O)/C=C/CNC2CC2)C1 [Example 24, (R,E)-4-(4-amino-1-(1-(4-(cyclopropylamino)but-2-enoyl)pyrrolidin-3-yl)-1H-pyrazolo[3,4-d]pyrimidin-3-yl)-N-(4-(trifluoromethyl)pyridin-2-yl)benzamide]",< 1,< 100,< 100,> 10000
"C=CC(=O)N[C@H]1CC[C@H](n2nc(-c3ccc(C(=O)Nc4cc(C)ccn4)cc3)c3c(N)ncnc32)CC1 [Example 27, 4-(1-((1,4-trans)-4-acrylamidocyclohexyl)-4-amino-1H-pyrazolo[3,4-d]pyrimidin-3-yl)-N-(4-methylpyridin-2-yl)benzamide]",< 1,–,> 10000,> 10000
